Test results published in patent US10047087B2, “Substituted pyrazolo[1,5-A] pyridine as tropomyosin receptor kinase (TrK) inhibitors” (Dr. Reddy's Laboratories Ltd., priority 2011, dated 2018).
Read-outs that look alike come from different tables or passages of the source.

Columns and labels:
TrkA kinase = molecular target: T1, TrkA kinase (Homo sapiens, UniProt P04629); assay: In vitro TrkA inhibitory activity using TR-FRET assay; type: biochemical; conditions: 5 ng TrkA, 500 μM ATP
T1 construct: purchased Upstate, USA
T1 sequence (P04629 33-796): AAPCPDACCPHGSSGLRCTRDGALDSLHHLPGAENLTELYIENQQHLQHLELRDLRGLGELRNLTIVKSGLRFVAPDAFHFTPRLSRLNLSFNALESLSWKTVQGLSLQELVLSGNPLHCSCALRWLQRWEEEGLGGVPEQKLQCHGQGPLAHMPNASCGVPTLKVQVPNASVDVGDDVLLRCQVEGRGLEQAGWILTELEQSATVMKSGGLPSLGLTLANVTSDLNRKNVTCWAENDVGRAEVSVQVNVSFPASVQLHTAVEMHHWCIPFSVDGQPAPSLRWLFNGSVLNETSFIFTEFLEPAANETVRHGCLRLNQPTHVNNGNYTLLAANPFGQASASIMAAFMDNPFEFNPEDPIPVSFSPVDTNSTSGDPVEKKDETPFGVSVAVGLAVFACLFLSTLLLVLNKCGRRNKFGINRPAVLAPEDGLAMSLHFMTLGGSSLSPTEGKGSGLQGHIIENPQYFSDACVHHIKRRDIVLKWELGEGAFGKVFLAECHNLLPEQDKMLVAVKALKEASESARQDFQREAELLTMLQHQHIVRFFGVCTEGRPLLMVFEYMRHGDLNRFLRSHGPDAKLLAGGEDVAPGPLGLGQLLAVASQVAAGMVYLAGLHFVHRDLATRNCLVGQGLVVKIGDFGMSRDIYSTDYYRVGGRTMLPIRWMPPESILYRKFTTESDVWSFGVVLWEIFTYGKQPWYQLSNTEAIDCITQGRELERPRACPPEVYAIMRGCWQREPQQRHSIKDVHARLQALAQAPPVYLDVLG
Method in brief: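 Kinase (5 ng) was preincubated with compound for 30 min at 20-35° C before adding 40 nM ULight poly GT and 500 μM ATP; stopped with EDTA after 30 min. Eu-anti-phosphotyrosine antibody (0.5 nM) was read at 615/665 nm with 1% DMSO final. Compounds showing >25% inhibition at 1 μM went to sigmoidal dose-response IC50 fitting.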

[1] = Metabolic stability using Human Liver Microsomes (HLM); type: in vitro ADME; conditions: pooled human liver microsomes, compound 1 μM, 0.3 mg/ml microsomal protein, 1 mM NADPH
Method: Stability Protocol: Metabolic Stability Using Rat Liver Microsomes (RLM) and Human Liver Microsomes (HLM).
This assay was performed using pooled male rat liver microsomes (In-house prepared as per SOP), Pooled Human liver microsomes (XENOTECH; Batch No— H0630-1110189)). The 100 μl reaction contains the compounds at 1 μM, 0.3 mg/ml microsomal protein and both the co-factors (1 mM NADPH) in buffer and the mixture was incubated at different time points (0, 15, 30, 45, 60, & 90 minutes). The reaction was stopped by the addition of equal volume of acetonitrile containing internal standard (Telmesartin). The precipitated protein was removed by centrifugation and the supernatant were analyzed LC/MS-MS method. The percent parent compound remaining was quantified by analysis using following formula (% parent compound remaining=(peak area at Time x/peak area at T0)×100. The intrinsic clearance was calculated using the following formula. CLint,app: (0.693/in vitro t½)(incubation volume/mg of microsomal protein)(45 mg microsomal protein/gram of liver)(20^a g of liver/kg body weight) • a: 20 and 45 g of liver/kg of body weight were used for human and rat, respectively (Lu C et al., DMD, 2006). Bio-analysis: It was performed in Multiple Reaction Monitoring mode (negative mode) using Applied Biosystems API 4000 coupled to Agilent Technologies 1100 series HPLC on a reverse phase column (Zorbax Eclipse XDB C18, 50×4.6 mm, 5 μm). Celecoxib was used as internal standard both in in-vitro and in-vivo experiments. Mobile phase used 0.05% […] water and acetonitrile (10:90) with a flow rate of 0.6 ml/minute. The injection volume was kept as 10 μl.

[2] = read-out: TrkA inhibition in-vitro IC50
[3] = both bounds given in nm, read-out: TrkA inhibitory activity in-vitro IC50

| SMILES | IC50 (TrkA kinase; [2]) [nM] | half-life at 1 μM [1] [h] | IC50 (TrkA kinase; [3]) [nM] |
| --- | --- | --- | --- |
| N#Cc1cccc(S(=O)(=O)NC(=O)c2cnn3ccc(N4CCC[C@@H]4c4cc(F)ccc4F)cc23)c1 [Example 4, (R)-N-((3-cyanophenyl)sulfonyl)-5-(2-(2,5-difluorophenyl)pyrrolidin-1-yl)pyrazolo[1,5-a]pyridine-3-carboxamide] | 50 to 100 | > 1.33 |  |
| COCCOc1ccc(F)cc1[C@H]1CCCN1c1ccn2ncc(C(=O)NS(=O)(=O)C(C)(C)C)c2c1 [Example 65, (R)-N-(tert-butylsulfonyl)-5-(2-(5-fluoro-2-(2-methoxyethoxy)phenyl)pyrrolidin-1-yl)pyrazolo [1,5-a]pyridine-3-carboxamide] | ≤ 50 | > 1.33 |  |
| CC(C)(C)S(=O)(=O)NC(=O)c1cnn2ccc(N3CCC[C@@H]3c3cc(F)cc(OC(F)F)c3)cc12 [Example 43, (R)-N-(tert-butylsulfonyl)-5-(2-(3-(difluoromethoxy)-5-fluorophenyl)pyrrolidin-1-yl) pyrazolo[1,5-a]pyridine-3-carboxamide] |  | > 1.33 | 100 to 500 |
| CCCS(=O)(=O)NC(=O)c1cnn2ccc(N3CCC[C@@H]3c3cc(F)ccc3F)cc12 [Example 10, (R)-5-(2-(2,5-difluorophenyl)pyrrolidin-1-yl)-N-(propylsulfonyl)pyrazolo[1,5-a] pyridine-3-carboxamide] | ≤ 50 | > 1.33 |  |
| CC(C)S(=O)(=O)NC(=O)c1cnn2ccc(N3CCC[C@@H]3c3cc(F)ccc3F)c(F)c12 [Example 75, (R)-5-(2-(2,5-difluorophenyl)pyrrolidin-1-yl)-4-fluoro-N-(isopropylsulfonyl)pyrazolo[1,5-a]pyridine-3-carboxamide] |  | > 1.33 | 100 to 500 |
| O=C(NS(=O)(=O)c1ccc(F)cc1)c1cnn2ccc(N3CCC[C@@H]3c3cc(F)ccc3F)cc12 [Example 1, (R)-5-(2-(2,5-difluorophenyl)pyrrolidin-1-yl)-N-((4-fluorophenyl)sulfonyl)pyrazolo[1,5-a]pyridine-3-carboxamide] |  | > 1.33 | 100 to 500 |
| CC(C)(C)S(=O)(=O)NC(=O)c1cnn2ccc(N3CCC[C@@H]3c3cc(F)ccc3F)cc12 [Example 2, (R)-N-(tert-butylsulfonyl)-5-(2-(2,5-difluorophenyl)pyrrolidin-1-yl) pyrazolo[1,5-a]pyridine-3-carboxamide] | ≤ 50 | > 1.33 |  |
| CC1(S(=O)(=O)NC(=O)c2cnn3ccc(N4C[C@@H](F)C[C@@H]4c4cc(F)ccc4F)cc23)CC1 [Example 74, 5-((2R,4S)-2-(2,5-difluorophenyl)-4-fluoropyrrolidin-1-yl)-N-((1-methylcyclopropyl)sulfonyl)pyrazolo[1,5-a]pyridine-3-carboxamide] | ≤ 50 | > 1.33 |  |
| CC(C)(C)S(=O)(=O)NC(=O)c1cnn2ccc(N3C[C@@H](F)C[C@@H]3c3cc(F)ccc3F)cc12 (single isomer, unassigned) [Example 52] | ≤ 50 | > 1.33 |  |
| CC(C)(C)S(=O)(=O)NC(=O)c1cnn2ccc(N3CCC[C@@H]3c3cc(F)ccc3OCCF)cc12 [Example 57, (R)-N-(tert-butylsulfonyl)-5-(2-(5-fluoro-2-(2-fluoroethoxy)phenyl)pyrrolidin-1-yl) pyrazolo[1,5-a]pyridine-3-carboxamide] | ≤ 50 | > 1.33 |  |
| O=C(NS(=O)(=O)Cc1ccccc1)c1cnn2ccc(N3CCC[C@@H]3c3cc(F)ccc3F)cc12 [Example 40, (R)-N-(benzylsulfonyl)-5-(2-(2,5-difluorophenyl)pyrrolidin-1-yl)pyrazolo[1,5-a]pyridine-3-carboxamide] | ≤ 50 | > 1.33 |  |
| CCN(C)S(=O)(=O)NC(=O)c1cnn2ccc(N3C[C@@H](F)C[C@@H]3c3cc(F)ccc3F)cc12 [Example 79, 5-((2R,4S)-2-(2,5-difluorophenyl)-4-fluoropyrrolidin-1-yl)-N-(N-ethyl-N-methylsulfamoyl) pyrazolo[1,5-a]pyridine-3-carboxamide] | ≤ 50 | > 1.33 |  |
| CN(C)S(=O)(=O)NC(=O)c1cnn2ccc(N3C[C@@H](F)C[C@@H]3c3cc(F)ccc3F)cc12 [Example 78, 5-((2R,4S)-2-(2,5-difluorophenyl)-4-fluoropyrrolidin-1-yl)-N-(N,N-dimethylsulfamoyl) pyrazolo[1,5-a]pyridine-3-carboxamide] | ≤ 50 | > 1.33 |  |
| CCN(C)S(=O)(=O)NC(=O)c1cnn2ccc(N3CCC[C@@H]3c3cc(F)ccc3OC)cc12 [Example 91, (R)-N-(N-ethyl-N-methylsulfamoyl)-5-(2-(5-fluoro-2-methoxyphenyl)pyrrolidin-1-yl)pyrazolo[1,5-a]pyridine-3-carboxamide] | ≤ 50 | > 1.33 |  |
| CCN(C)S(=O)(=O)NC(=O)c1cnn2ccc(N3CCC[C@@H]3c3cc(F)cc(O[C@@H]4CCOC4)c3)cc12 [Example 106, N-(N-ethyl-N-methylsulfamoyl)-5-((R)-2-(3-fluoro-5-(((R)-tetrahydrofuran-3-yl)oxy)phenyl)pyrrolidin-1-yl)pyrazolo[1,5-a]pyridine-3-carboxamide] |  | > 1.33 |  |

More lines, now with the values ahead:

| IC50 (TrkA kinase; [2]) [nM] | half-life at 1 μM [1] [h] | IC50 (TrkA kinase; [3]) [nM] | SMILES |
| --- | --- | --- | --- |
| 50 to 100 | > 1.33 |  | COc1ccc(S(=O)(=O)NC(=O)c2cnn3ccc(N4CCC[C@@H]4c4cc(F)ccc4F)cc23)cn1 [Example 26, (R)-5-(2-(2,5-difluorophenyl)pyrrolidin-1-yl)-N-((6-methoxypyridin-3-yl)sulfonyl) pyrazolo[1,5-a]pyridine-3-carboxamide] |
| 50 to 100 | > 1.33 |  | CCOc1ccc(F)cc1[C@H]1CCCN1c1ccn2ncc(C(=O)NS(=O)(=O)C(C)(C)C)c2c1 [Example 45, (R)-N-(tert-butylsulfonyl)-5-(2-(2-ethoxy-5-fluorophenyl)pyrrolidin-1-yl)pyrazolo[1,5-a]pyridine-3-carboxamide] |
| ≤ 50 | > 1.33 |  | CC(C)(C)S(=O)(=O)NC(=O)c1cnn2ccc(N3CCC[C@@H]3c3cc(F)ccc3OC3CCOC3)cc12 (stereo partly drawn) [Example 59, N-(tert-butylsulfonyl)-5-((2R)-2-(5-fluoro-2-((tetrahydrofuran-3-yl)oxy)phenyl)pyrrolidin-1-yl)pyrazolo[1,5-a]pyridine-3-carboxamide] |
| ≤ 50 | > 1.33 |  | CN(C)S(=O)(=O)NC(=O)c1cnn2ccc(N3CCC[C@@H]3c3cc(F)ccc3F)cc12 [Example 76, (R)-5-(2-(2,5-difluorophenyl)pyrrolidin-1-yl)-N—(N, N-dimethylsulfamoyl)pyrazolo[1,5-a]pyridine-3-carboxamide] |
|  | > 1.33 | 100 to 500 | CCS(=O)(=O)NC(=O)c1cnn2ccc(N3CCC[C@@H]3c3cc(F)ccc3F)cc12 [Example 3, (R)-5-(2-(2,5-difluorophenyl)pyrrolidin-1-yl)-N-(ethylsulfonyl)pyrazolo[1,5-a]pyridine-3-carboxamide] |
| ≤ 50 | > 1.33 |  | CCN(C)S(=O)(=O)NC(=O)c1cnn2ccc(N3CCC[C@@H]3c3cc(F)ccc3F)cc12 [Example 77, (R)-5-(2-(2,5-difluorophenyl)pyrrolidin-1-yl)-N-(N-ethyl-N-methylsulfamoyl) pyrazolo[1,5-a]pyridine-3-carboxamide] |
|  | > 1.33 | 100 to 500 | CC(C)(C)S(=O)(=O)NC(=O)c1cnn2ccc(N3CCCC3c3cc(F)cc4c3OCCO4)cc12 (single isomer, unassigned) [Example 50, N-(tert-butylsulfonyl)-5-(2-(7-fluoro-2,3-dihydrobenzo [b][1,4]dioxin-5-yl)pyrrolidin-1-yl)pyrazolo[1,5-a]pyridine-3-carboxamide] |
| 50 to 100 | > 1.33 |  | O=C(NS(=O)(=O)c1ccc2c(c1)OCO2)c1cnn2ccc(N3CCC[C@@H]3c3cc(F)ccc3F)cc12 [Example 35, (R)-N-(benzo[d][1,3]dioxol-5-ylsulfonyl)-5-(2-(2,5-difluorophenyl)pyrrolidin-1-yl)pyrazolo[1,5-a]pyridine-3-carboxamide] |
| 50 to 100 | > 1.33 |  | CC(C)(C)S(=O)(=O)NC(=O)c1cnn2ccc(N3CCC[C@@H]3c3cc(F)ccc3OCC3CC3)cc12 [Example 46, (R)-N-(tert-butylsulfonyl)-5-(2-(2-(cyclopropylmethoxy)-5-fluorophenyl)pyrrolidin-1-yl)pyrazolo[1,5-a]pyridine-3-carboxamide] |
